Common to all, as to assay type: in vivo, dog
For series [1], the system named is client-owned dogs with a history of acute anxiety and fear associated with noise due to fireworks. Put plainly: Clinical field study in dogs: noise anxiety (fireworks). The conditions noted are these: 30 μg/kg orally 1-3 times as needed, New Year's Eve. As for the experimental part: (§1) Three randomized, double-blind, placebo-controlled, clinical field studies were conducted for evaluating the effectiveness and clinical safety of tasipimidine for the treatment of situational anxiety and fear-based behaviors in dogs triggered by events such as travel, noise, or owner departure. Across all three studies dogs were randomized to receive either 0.03 mg/kg of tasipimidine (n=131) or placebo (n=133) orally at home by the owner. Assessments were made using video (in the case of when left alone or car travel) or by the caretaker present during the fear inducing incident (in the case of noise anxiety). Both were assessed using a numerical rating scale with scores 1-5.
The first study was conducted in client-owned dogs with a history of acute anxiety and fear associated with noise due to fireworks. Dogs receive tasipimidine 30 μg/kg or placebo 1-3 times as needed with at least 3 hours between doses during New Year's Eve. The primary efficacy variable was the owner's assessment of the effect of study treatment on the dog's signs of acute anxiety and fear due to fireworks. The assessment was made once at least 2 hours after the last dose or at 1:00 A.M., whichever occurred later.

Series [2] relates to client-owned dogs suffering from separation anxiety. Nature of the series: Clinical field study in dogs: separation anxiety. To be noted: 30 μg/kg orally 1-3 times a day as needed, 5-7 days a week for 5 weeks. Here is the method:
as §1
The second study was conducted in client-owned dogs suffering from separation anxiety. Dogs received tasipimidine 30 μg/kg or placebo 1-3 times a day as needed 5-7 days a week for 5 weeks. The primary efficacy variable was the owner's assessment of the effect of the study treatment on acute anxiety related to the owner's departure. Dog owners assessed the effect of the study treatment on their dog's signs of separation anxiety from video recordings after returning home. The owner also took into account the signs of the dog's behavior during the separation (e.g., destruction and elimination) that were not visible in the video recording.

In series [3] the test system is client-owned dogs suffering from travel anxiety. Put plainly: Clinical field study in dogs: travel anxiety. To be noted: single oral dose 30 μg/kg approximately 1 hour before car travel. As for the experimental part:
as §1
The third study was conducted in client-owned dogs suffering from travel anxiety. Dogs received a single dose of tasipimidine 30 μg/kg or placebo approximately 1 hour before car travel. The primary efficacy variable was the external observer's assessment of signs of anxiety and fear from video recordings. The owner assessed the treatment effect based on the dog's behavior during the first 10 minutes of car travel.

For series [4], the system named is dogs. Put plainly: Clinical safety in the three clinical field studies in dogs. To be noted: 30 μg/kg orally. Here is the method:
as §1

SMILES strings stand for the structures.

For `COc1cccc2c1CCOC2C1=NCCN1` (stereo not shown) [Tasipimidine, 2-(5-methoxyisochroman-1-yl)-4,5-dihydro-1H-imidazole], the “treatment effect compared with placebo: owner's assessment of signs of acute anxiety and fear due to fireworks” value in series [1] is listed as “statistically significant treatment effect in favor of tasipimidine”. Moreover, in series [2], the “treatment effect compared with placebo: owner's assessment of acute anxiety related to the owner's departure” value is listed as “statistically significant treatment effect in favor of tasipimidine”. Also, the “treatment effect compared with placebo: external observer's assessment of signs of anxiety and fear from video recordings” value in series [3] is recorded as “statistically significant treatment effect in favor of tasipimidine”. The “marked ataxia or clinical sedation” value in series [4] is listed as “did not produce marked ataxia or clinical sedation”.

(Values after patent US20240165083A1, “TASIPIMIDINE FORMULATIONS AND USE THEREOF” (ORION CORPORATION, priority 2021, published 2024).)
